Assay results reported in patent US20240117303A1, “METHODS AND COMPOSITIONS FOR GENERATING HUMAN MIDBRAIN DOPAMINERGIC NEURONS FROM NEURAL PROGENITOR CELLS” (Trailhead Biosystems Inc., priority 2022, published 2024).
Entries after “also recorded” stand apart in the source; their conditions may differ.

Assays:
Assay type in all cases: cell-based, human
MB neural progenitors = assay: HD-DoE 8-factor model, DBZ and AZD3147 (FIG. 26); conditions: dynamic profile
[1] = test system: stage 1 neural stem cells; assay: HD-DoE 12-factor experiment for stage 2 recipe (second model, FIG. 8-10, 13)
[2] = test system: stage 2 neural progenitors; assay: HD-DoE another 12-factor model for stage 3 recipe (FIG. 24, 25, 30); conditions: for level of MSX1 in absence of the factor / level of SOX6 in absence of the factor: AZD3147, DBZ, PD0325901 and BMP7 set; for level of MSX1 in absence of the factor: 45 with all factors; for level of SOX6 in absence of the factor: 185 with all factors; for impact on expression of MSX1 / impact on expression of SOX6: dynamic profile, 12 effectors; for factor contribution: model optimized for SOX6, positive impact
Description: In another 12-factor model, additional factors including Activin A, Takinib (TAK inhibitor), FGF8b, AZD3147 (mTOR antagonist), MHY1485 (mTOR agonist), and Yhhu-3792 (Notch agonist) were tested. Some of the factors from previous model (BMP7, A 8301, LDN193189, PD0325901, MK2206 and DBZ) were also included.
(§1) To assess the impact of elimination of each validated factor identified in Example 5 for the stage 3 and stage 4 recipes, we used dynamic profile analysis and compared the expression level of genes of interest in absence of each finalized factor while others are present.
In another model, to determine the combinatorial effect of AZD3147 and DBZ on gene profile of cells in presence of other factors of final recipe, the expression levels of SOX6 and MSX1 were compared in the absence of each of the factors in the presence of PD0325901 and BMP7. These two compounds were the only final compounds that were included in inputs of this experimental model The results are shown in FIG. 30A and FIG. 30B. […] When DBZ was removed, the level of SOX6 and MSX1 both decreased to 140 and 35, respectively.

stage 3 immature neurons = assay: HD-DoE 8-factor experiment for stage 4 recipe (FIG. 27, 28, 31)
Description: To further differentiate the cells to a mature neuronal identity, additional HD-DoE experiments were performed on the cells that were cultured in stage 1, stage 2 and stage 3 differentiation media. After 4 days, gene expression of cells in different combinatorial conditions were investigated. At this time, we focused on maximal expression of more mature dopaminergic genes such as NR4A2, PITX3 and TH (Tiklová et al. (2020) Nat Commun. 11:2434; Fiorenzano et al. (2021) Nat Commun., 12:7302). In one model, cells were treated with a combinatorial matrix with eight inputs including CHIR99021, BDNF, GDNF, Rosiglitazone, GW7647, DBZ and heparin.
as §1
In the stage 4 recipe, each of six finalized factors were excluded while other factors were present and the expression levels of NR4A2 and PITX3 were assessed compared to the presence of all factors.

[3] = test system: stage 2 neural progenitors; assay: HD-DoE 12-factor model for stage 3 recipe (FIG. 19-23, 29); conditions: model optimized for maximum expression of KCNJ6; positive regulators

C[C@H]1COCCN1c1cc(C2(S(=O)(=O)C3CC3)CC2)nc(-c2ccc(NC(=S)NCCO)cc2)n1 [AZD 3147]
impact on expression of CORIN, KCNJ6, SOX6 and MSX1 (MB neural progenitors): positive regulatory effect; also recorded: Positive impact | impact on expression of FOXA2 ([1]; dynamic profile, 12 effectors): did not reduce | impact on expression of LMX1A ([1]; dynamic profile, 12 effectors): significant positive impact | factor contribution ([1]; model optimized for maximum expression of FOXA2, positive impact): 10.9 | level of FOXA2 in absence of the factor ([1]; stage 2 recipe, second experiment model): almost no effect | level of LMX1A in absence of the factor ([1]; stage 2 recipe, second experiment model, 4000 with all factors): 2000 | level of MSX1 in absence of the factor [2]: did not change | level of SOX6 in absence of the factor [2]: 150 | impact on expression of MSX1 [2]: did not show any significant impact | impact on expression of SOX6 [2]: positive impact | factor contribution [2]: 20.2

C[C@H](NC(=O)Cc1cc(F)cc(F)c1)C(=O)N[C@@H]1C(=O)N(C)c2ccccc2-c2ccccc21 [DBZ]
impact on expression of NR4A2 (stage 3 immature neurons; 8-factor model / dynamic profile): positive regulatory impact | expression level of PITX3 in absence of the factor (stage 3 immature neurons; stage 4 recipe, other factors present, 40 with all factors): 30 | expression level of NR4A2 in absence of the factor (stage 3 immature neurons; stage 4 recipe, other factors present, 400 with all factors): 200 | factor contribution [3]: low factor contributions | impact on expression of CORIN, KCNJ6, SOX6 and MSX1 (MB neural progenitors): positive regulatory effect; also recorded: Positive impact | level of MSX1 in absence of the factor [2]: 35 | level of SOX6 in absence of the factor [2]: 140 | impact on expression of MSX1 [2]: did not show any significant impact | impact on expression of SOX6 [2]: positive impact | factor contribution [2]: 21.5
